Test results reported in patent US20200215153A1, “CANCER TREATMENT AND/OR PREVENTION THROUGH REGULATION OF UBIQUITINATION” (Academia Sinica, priority 2018, published 2020).

Experiments:
[1] = tested on: Hs578T orthotopic breast tumors; test: BIKDD gene therapy model: orthotopic Hs578T tumors, intratumoral VISA-BIKDD plus STF-083010; format: in vivo, nude mice
Procedure: (§1) All mice were maintained according to the guidelines of animal ethical regulations, and all animal studies were approved by the Experimental Animal Committee, Academia Sinica. […] Seven days later, DMSO or STF-083010 (40 mg/kg) was intraperitoneally administrated every 3 days. […] Twenty-eight days later, DMSO or STF-083010 (40 mg/kg) was intraperitoneally administrated every 3-4 days. […] For both models, tumors were measured every 3 or 4 days, and their volumes were calculated using the equation: mm^3=[…]×length(mm)×(width(mm))^2.

[2] = tested on: TNBC cells (Hs578T, MDA-MB157, MDA-MB468); test: MTT assay for viability of TNBC cells transfected with BIKDD and treated with IRE1α inhibitor; format: cell-based; details: 10 or 100 μM STF-083010, 48 h
Procedure: (§2) FIG. 7. […] (a, c) MTT assay for the viability of indicated TNBC cells transfected with […] CMV-BIKDD (a) or VISA-BIKDD (c) and treated with 10 or 100 μM STF-083010 for 48 h. CI values are indicated. (b) Western blot analysis of cleaved PARP in indicated TNBC cells transfected with CMV-BIKDD and treated with 100 μM STF-083010 for 36 h. […] Tumor volume were measured at indicated days and plotted. Data are mean±s.d., *P<0.05; ***P<0.001 by two-way ANOVA with Turkey's post test, n=5. Tumors were surgically removed at day 49 and their sizes are shown on the right. (e) Mice orthotopically implanted with Hs578T cells and treated with VISA-BIKDD lipid nanoparticle together with STF-083010 or DMSO starting at day 28 after tumor cell implantation (see Materials and Methods). Tumor volume were measured at indicated days and plotted. Data are mean±s.d., ***P<0.001 by two-way ANOVA with Turkey's post test, n=5. Tumors were surgically removed at day 66 and their sizes are shown on the right.
MDA-MB157 and MDA-MB 468 cells were seeded at a density of 5×10^3 cells and Hs578T cells were at 2×10^3 cells in 96-well plates. Cells were transfected with BIKDD. In the next day, cells were treated with IRE1α inhibitor or DMSO for 48 h and then with 0.4 mg/ml methylthiazolyldiphenyltetrazolium bromide (MTT) (Sigma) for 2 h. Cells were dissolved in DMSO, followed by absorbance measurement at 590 nm. The combination index (CI) was calculated using the equation: CI=CA/IC50A+CB/IC50B. CA and CB represent the concentrations of the two agents for combined treatment. IC50A and IC50B are the IC50 values for each single treatment, which were determined by treating cells with various dosages of each agent followed by MTT assay. (CI<1) indicates a synergistic effect, (CI>1) corresponds to an antagonistic effect, and (CI=1) represents an additive effect.

cleaved PARP = test: Western blot analysis of cleaved PARP in TNBC cells; format: cell-based; details: TNBC cells transfected with CMV-BIKDD, 100 μM STF-083010, 36 h; FIG. 7b
Procedure: as §2
(§3) Cell extraction was performed with RIPA lysis buffer containing 50 mM Tris (pH 8.0), 0.15 M NaCl, 1% NP40, 1% sodium deoxycholate, 0.1% SDS, 1 mM PMSF, 1 µg/ml aprotinin, and 1 µg/ml leupeptin. Western blot was performed with the standard protocol. […] Immunoprecipitation was performed and analyzed as previously described. […] The beads were washed with RIPA lysis buffer and the bound proteins were analyzed by Western blot.

[3] = tested on: Hs578T orthotopic breast tumors; test: Orthotopic Hs578T tumor model, cells expressing BIKDD or control vector, treated with STF-083010; format: in vivo, nude mice
Procedure: as §1

BIKDD = BIKDD levels in TNBC cell lines treated with IRE1α inhibitor; format: cell-based; details: TNBC cell lines Hs578T, MDA-MB157 and MDA-MB468
Procedure: (§4) Cell extraction was performed with RIPA lysis buffer containing 50 mM Tris (pH 8.0), 0.15 M NaCl, 1% NP40, 1% sodium deoxycholate, 0.1% SDS, 1 mM PMSF, 1 µg/ml aprotinin, and 1 µg/ml leupeptin. Western blot was performed with the standard protocol. For an efficient detection of BIK by Western blot, Tricine-SDS-PAGE was used. Western blot analyses of other proteins were performed with Glycine-SDS-PAGE. Immunoprecipitation was performed and analyzed as previously described. Briefly, cell lysates were incubated with primary antibody for overnight. The Pure Proteome Protein A/G Magnetic Beads (LSKMAGA/G10, EMD Millipore) were then added into cell lysates and incubated for 1.5 h. The beads were washed with RIPA lysis buffer and the bound proteins were analyzed by Western blot.

293T cells = test: ELISA assay of cell apoptosis (Cell Death ELISA) in 293T cells; format: cell-based; details: control 293T cells, early time point (12 h) after tunicamycin; FIG. 6e
Procedure: FIG. 6. Regulation of ASB11-mediated BIK ubiquitination influences on cell life-death decision under ER stress and DNA damage. (a, b) ELISA assay of cell apoptosis (a) and Western blot analysis of active caspase 3 and cleaved PARP (b) in HCT116 p53^+/+ cells stably expressing indicated ASB11 constructs and treated with 3 μg/ml doxorubicin for 24 h. (c, d) ELISA assay of cell apoptosis (c) and Western blot analysis of active caspase 3 and cleaved PARP (d) in HCT116 p53^+/+ cells transiently transfected with ASB11 and/or BIK and treated with 3 μg/ml doxorubicin for 24 h. (e, f) ELISA assay for cell apoptosis (e) and Western blot analysis of active caspase 3 and cleaved PARP (f) in 293T cells stably expressing indicated shRNAs and treated with […] tunicamycin for 12 h. The knockdown efficiencies of various shRNAs are shown on the bottom. (g) Western blot analysis of BIK level in 293T cells transiently transfected with indicated BIK constructs and treated with 10 μg/ml tunicamycin for 24 h. The equal expression of BIK and BIK(2KR) in untreated cells (by adjusting the amount of plasmid used for transfection) is shown. […]
Apoptosis was analyzed as previously described. […] Cells were harvested and DNA fragmentation was measured by Cell Death ELISA Kit (Roche).

BIK [4] = test: Cycloheximide-chase analysis of BIK turnover in 293T cells; format: cell-based; details: 10 μg/ml tunicamycin 12 h then 50 μg/ml cycloheximide, FIG. 4b
Procedure: (§5) FIG. 4. ER stress stimulates BIK ubiquitination and degradation through ASB11 and p97. (a) Western blot analysis of BIK and ASB11 levels in 293T cells treated with 10 μg/ml tunicamycin or 200 nM of thapsigargin for 16 h. (b) Western blot analysis of BIK levels in 293T cells treated with 10 μg/ml tunicamycin for 12 h and then with 50 μg/ml cycloheximide for indicated time periods. The relative amounts of BIK are indicated on the bottom. (c, e) Analysis of endogenous (c) or exogenous (e) BIK ubiquitination in 293T cells (c) or 293T derivatives as in FIG. 2d (e) transfected with indicated constructs and treated with tunicamycin. (d) Western blot analysis of 293T derivatives as in FIG. 2d treated with 10 μg/ml tunicamycin for 16 h. (f) Western blot analysis of BIK levels in 293T derivatives co-treated with 10 μg/ml tunicamycin and MG132 for 16 h. (g) Western blot analysis of BIK expression in 293T cells co-treated with tunicamycin and 10 μM CB-5083 for 16 h. (h, i) Western blot analysis of BIK expression in 293T cells stably expressing indicated shRNAs and treated with 10 μg/ml tunicamycin for 16 h. The knockdown efficiency of each shRNA is shown on the right. (j) Immunoprecipitation analysis of p97 interaction with ubiquitinated BIK in 293T cells treated with 10 μg/ml tunicamycin for 16 h.

ASB11 = test: Western blot analysis of ASB11 protein expression under ER stress; format: cell-based; details: multiple cell lines; 10 μg/ml tunicamycin or 200 nM thapsigargin, 16 h; FIG. 4a
Procedure: as §5, with “(h, i) Western blot analysis of BIK expression in 293T cells stably expressing indicated shRNAs and treated with 10 μg/ml tunicamycin for 16 h. The knockdown efficiency of each shRNA is shown on the right. (j) Immunoprecipitation analysis of p97 interaction with ubiquitinated BIK in 293T cells treated with 10 μg/ml tunicamycin for 16 h.” left out
as §3, with “leupeptin.” for “leupeptin. Western blot was performed with the standard protocol.”

BIK [5] = test: Western blot analysis of BIK levels in 293T cells; format: cell-based; details: multiple cell lines; 10 μg/ml tunicamycin or 200 nM thapsigargin, 16 h; FIG. 4a
Procedure: FIG. 2. […] (d) Western blot analysis of BIK levels in indicated cells stably expressing control or ASB11 shRNAs.
as §4

BIK [6] = test: Analysis of endogenous BIK ubiquitination in 293T cells; format: cell-based; details: FIG. 4c
Procedure: (§6) FIG. 4. ER stress stimulates BIK ubiquitination and degradation through ASB11 and p97. (a) Western blot analysis of BIK and ASB11 levels in 293T cells treated with 10 μg/ml tunicamycin or 200 nM of thapsigargin for 16 h. (b) Western blot analysis of BIK levels in 293T cells treated with 10 μg/ml tunicamycin for 12 h and then with 50 μg/ml cycloheximide for indicated time periods. The relative amounts of BIK are indicated on the bottom. (c, e) Analysis of endogenous (c) or exogenous (e) BIK ubiquitination in 293T cells (c) or 293T derivatives as in FIG. 2d (e) transfected with indicated constructs and treated with tunicamycin. (d) Western blot analysis of 293T derivatives as in FIG. 2d treated with 10 μg/ml tunicamycin for 16 h. (f) Western blot analysis of BIK levels in 293T derivatives co-treated with 10 μg/ml tunicamycin and MG132 for 16 h. (g) Western blot analysis of BIK expression in 293T cells co-treated with tunicamycin and 10 μM CB-5083 for 16 h. (h, i) Western blot analysis of BIK expression in 293T cells stably expressing indicated shRNAs and treated with 10 μg/ml tunicamycin for 16 h. The knockdown efficiency of each shRNA is shown on the right. (j) Immunoprecipitation analysis of p97 interaction with ubiquitinated BIK in 293T cells treated with 10 μg/ml tunicamycin for 16 h. […]

ASB11 mRNA = test: RT-qPCR analysis of ASB11 mRNA level under ER stress; format: cell-based; details: 293T, MDA-MB157 and MDA-MB468 cells; 16 h; FIG. 3a
Procedure: FIG. 3. ER stress induces ASB11 transcription through XBP1. (a, b) RT-qPCR analysis of ASB11 mRNA level in 293T cells (a) or 293T cells stably expressing control or XBP1 shRNAs (b) treated with tunicamycin or thapsigargin for 16 h. (c) RT-qPCR analysis of ASB11 mRNA expression in 293T cells transfected with control vector or XBP1s. (d) Schematic representation of the 5′-regulatory region of ASB11 gene, the luciferase reporters and the ChIP primers used in this study. (e, g) Luciferase reporter assay of 293T cells transfected with control or XBP1s expression construct together with the indicated reporter constructs. (f, k) qChIP assays in 293T cells (f) or 293T derivatives (k) treated with 10 μg/ml tunicamycin for 16 h using control IgG or XBP1s antibody for immunoprecipitation and indicated sets of primers for qPCR. […] P values are determined by t-test (a, b right panel, c, e) or 1-way ANOVA with Tukey's post test (b left panel, f, g, i, j, k). **P<0.01; ***P<0.001.
Total mRNA was extracted from cells using TRIZOL reagent (Invitrogen), and equal amounts of RNA were reverse transcribed to cDNA using the iScript™ cDNA Synthesis Kit (Bio-Rad). Quantitative real-time PCR was performed using the Power SYBR Green PCR Master kit (Applied Biosystems). […]

p97 / ubiquitinated BIK = test: Immunoprecipitation analysis of p97 interaction with ubiquitinated BIK; format: cell-based; details: 293T cells, 10 μg/ml tunicamycin, 16 h
Procedure: as §6, with “h.” for “h. (h, i) Western blot analysis of BIK expression in 293T cells stably expressing indicated shRNAs and treated with 10 μg/ml tunicamycin for 16 h. The knockdown efficiency of each shRNA is shown on the right. (j) Immunoprecipitation analysis of p97 interaction with ubiquitinated BIK in 293T cells treated with 10 μg/ml tunicamycin for 16 h.”
as §3, with “leupeptin.” for “leupeptin. Western blot was performed with the standard protocol.”

O=S(=O)(N=Cc1c(O)ccc2ccccc12)c1cccs1 [STF-083010, N-[(2-Hydroxy-1-naphthalenyl)methylene]-2-thiophenesulfonamide]
anti-tumor effect of combined administration compared to BIKDD alone ([1]; VISA-BIKDD 0.75 mg/kg intratumoral every 7 days plus STF-083010 40 mg/kg i.p. every 3-4 days, FIG. 7e): significant enhancement
body weights of mice ([1]; VISA-BIKDD gene therapy model): not altered
killing of TNBC cells in combination with BIKDD ([2]; CMV-BIKDD transfected Hs578T, MDA-MB157, MDA-MB468, FIG. 7a): synergized
killing effect of co-administration with VISA-BIKDD ([2]; VISA-BIKDD transfected TNBC cells, FIG. 7c): synergistic
level of cleaved PARP, combinatory treatment (cleaved PARP): increased
tumor growth, combined treatment with BIKDD ([3]; BIKDD-expressing Hs578T cells plus STF-083010 40 mg/kg i.p. every 3 days, FIG. 7d): greatly suppressed
body weights of mice ([3]; BIKDD-expressing cell model): not altered
tumor growth, agent alone ([3]; BIKDD-expressing cells or STF-083010 40 mg/kg i.p. every 3 days, alone, FIG. 7d): modest reduction
BIKDD levels (BIKDD): elevated

tunicamycin
apoptosis induction (293T cells): did not show sign of apoptosis induction
turnover of endogenous BIK (BIK [4]): increased
ASB11 protein expression (ASB11): elevated
BIK protein level (BIK [5]): reduced
ubiquitination of endogenous BIK (BIK [6]): increased
expression of ASB11 mRNA (ASB11 mRNA): upregulated
interaction of p97 with ubiquitinated BIK (p97 / ubiquitinated BIK): increased
